The target of the test is T1, P-glycoprotein (P-gp, ABCB1) (Homo sapiens, UniProt P08183).
T1 construct: P-gp containing membranes of the commercial Pgp-Glo Assay System (Promega; kit membranes carry recombinant human P-gp); full length, not purified
T1 sequence (P08183 whole entry): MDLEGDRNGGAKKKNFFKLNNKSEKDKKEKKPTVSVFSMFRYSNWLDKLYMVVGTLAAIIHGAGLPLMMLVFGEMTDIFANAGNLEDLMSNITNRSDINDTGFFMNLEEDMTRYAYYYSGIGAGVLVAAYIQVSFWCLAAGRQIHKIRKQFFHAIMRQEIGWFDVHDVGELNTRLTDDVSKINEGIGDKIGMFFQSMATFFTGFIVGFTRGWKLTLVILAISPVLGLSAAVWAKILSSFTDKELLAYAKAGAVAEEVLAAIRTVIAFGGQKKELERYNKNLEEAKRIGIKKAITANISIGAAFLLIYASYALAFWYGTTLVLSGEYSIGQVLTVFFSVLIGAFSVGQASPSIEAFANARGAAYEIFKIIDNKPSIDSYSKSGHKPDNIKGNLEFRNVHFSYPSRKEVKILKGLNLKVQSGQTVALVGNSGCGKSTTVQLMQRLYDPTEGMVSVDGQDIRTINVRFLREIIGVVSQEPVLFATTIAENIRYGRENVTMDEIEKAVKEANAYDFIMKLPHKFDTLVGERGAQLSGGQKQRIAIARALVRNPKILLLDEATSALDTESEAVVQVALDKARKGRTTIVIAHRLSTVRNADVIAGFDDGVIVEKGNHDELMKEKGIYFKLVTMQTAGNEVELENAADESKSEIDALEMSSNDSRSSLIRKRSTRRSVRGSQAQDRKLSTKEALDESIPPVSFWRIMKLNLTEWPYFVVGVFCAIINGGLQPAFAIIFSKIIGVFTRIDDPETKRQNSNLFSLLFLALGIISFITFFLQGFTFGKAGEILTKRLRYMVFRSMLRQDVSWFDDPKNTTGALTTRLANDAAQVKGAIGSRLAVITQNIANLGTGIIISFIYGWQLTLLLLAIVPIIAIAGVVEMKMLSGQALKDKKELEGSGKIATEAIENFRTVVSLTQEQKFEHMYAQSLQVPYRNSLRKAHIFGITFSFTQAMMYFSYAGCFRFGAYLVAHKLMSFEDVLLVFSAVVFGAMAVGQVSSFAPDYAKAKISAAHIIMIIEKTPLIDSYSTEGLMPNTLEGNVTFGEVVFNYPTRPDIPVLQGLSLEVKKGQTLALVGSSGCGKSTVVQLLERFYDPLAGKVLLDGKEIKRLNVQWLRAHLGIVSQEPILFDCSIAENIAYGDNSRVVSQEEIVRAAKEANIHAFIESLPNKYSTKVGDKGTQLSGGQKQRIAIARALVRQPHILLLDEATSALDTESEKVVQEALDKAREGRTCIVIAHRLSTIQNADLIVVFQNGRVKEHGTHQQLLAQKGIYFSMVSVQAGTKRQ
Briefly: Pgp-Glo luminescent ATPase assay, P-gp membranes. In kind it is biochemical. An excerpt:
Pgp-Glo luminescent ATPase assay, P-gp membranes on P-glycoprotein (P-gp, ABCB1)
`COc1cc(-c2oc3c(O)cc([C@H]4Oc5cc(O)cc(O)c5C(=O)[C@@H]4O)cc3c2C)ccc1O` [Anhydrosilychristin]: inhibition was half-maximal at 16.8 ± 0.2 µM (IC50).

For `COc1cc([C@@H]2Oc3c(O)cc(-c4oc5cc(O)cc(O)c5c(=O)c4O)cc3[C@H]2CO)ccc1O` [2,3-Dehydrosilychristin A], 15.6 ± 0.5 µM corresponded to half-maximal inhibition (IC50). This IC50 and that of the compound before are within 1.5-fold of each other. Under `COc1cc([C@@H]2Oc3c(O)cc([C@H]4Oc5cc(O)cc(O)c5C(=O)[C@@H]4O)cc3[C@H]2CO)ccc1O` [Silychristin A] stands 21 ± 1 µM.

Source of the values: article PMC6720199, “Antioxidant, Anti-Inflammatory, and Multidrug Resistance Modulation Activity of Silychristin Derivatives” (Antioxidants, 2019).
